Measurements taken from patent US12319666B2, “Hydrate of dimethylaminomicheliolide fumarate and preparation method therefor and use thereof” (priority 2020, dated 2025).

Key:
[1] = Crystal particle size (scanning electron micrograph of crystal morphology); assay type: physicochemical; settings: for average particle size: crystal product, SEM
Method: (§1) The crystal habit of the hydrate of dimethylaminomicheliolide fumarate is studied in the present disclosure, and a scanning electron micrograph thereof is shown in FIG. 3. —The crystal has a regular block crystal habit, and the surface of the particle is smooth without agglomeration, meanwhile, the crystal has a large average particle size that can reach 300 μm, a bulk density of 0.65 g/mL, and an angle of repose of 32°. The product features high bulk density and good fluidity. In comparison, the crystalline form A prepared using the natural cooling recrystallization method disclosed in patent CN103724307B has a primary particle size of 35.8 μm, a bulk density of mere 0.270 g/mL and an angle of repose of 62°, and a scanning electron micrograph thereof is shown in FIG. 4.

[2] = Angle of repose (fluidity); assay type: physicochemical; settings: crystal product without auxiliary materials
Method: as §1
The hydrate of the present disclosure has good fluidity and is more suitable for being prepared as a medicament at a later stage. It is well known that the fluidity of an active ingredient per se is generally hard to meet the filling conditions of capsules or microcapsules, and auxiliary materials such as pregelatinized starch, silica and magnesium stearate are required to meet the requirements for fluidity by the filling conditions so as to achieve the desired quality of dosage forms and production efficiency. Taking the specification of 100 mg capsules as an example, if other forms such as crystalline form A are used as active ingredients, the weight of capsule contents reaches about 310 mg after auxiliary materials are added, and thus the largest 0 # capsule shell must be used, and larger specification such as capsules containing 200 mg of active ingredients cannot be prepared.

[3] = Bulk density of crystal product; assay type: physicochemical
Method: as §1

[4] = Solubility in solvents (qualitative); assay type: physicochemical
[5] = background statement; cited from earlier work
[6] = cited from earlier work
[7] = Stability of the hydrate at 45° C., humidity 75%, 30 days (XRD and purity analysis); assay type: physicochemical
Method: The stability of the hydrate of dimethylaminomicheliolide fumarate is investigated in the present disclosure. The […] crystal compound product is uniformly distributed in an open Petri dish. The temperature is controlled at 45° C., the humidity is 75%, and the sample thickness is less than 5 mm. The Petri dish is hermetically placed in a drier for 30 days. Then the samples placed for 7, 14 and 30 days were examined by XRD and compared with the results on day 0. […] Meanwhile, the samples at days 7, 14 and 30 are subjected to purity analysis. […] By combining the XRD patterns and the results of the purity analysis, the hydrate of dimethylaminomicheliolide fumarate is shown to have good stability.

SMILES | average particle size [1] | angle of repose [2] | bulk density [3] | further results
CC1=C2CC[C@@](C)(O)[C@@H]2[C@H]2OC(=O)[C@@H](CN(C)C)[C@@H]2CC1.O=C(O)/C=C/C(=O)O [Example 6, hydrate of dimethylaminomicheliolide fumarate] | ≤ 300 μm | 32.3 ° | 0.65 g/mL | 
CC1=C2CC[C@@](C)(O)[C@@H]2[C@H]2OC(=O)[C@@H](CN(C)C)[C@@H]2CC1.O=C(O)/C=C/C(=O)O [Example 5, hydrate of dimethylaminomicheliolide fumarate] | ≤ 300 μm | 32 ° | 0.645 g/mL | 
CC1=C2CC[C@@](C)(O)[C@@H]2[C@H]2OC(=O)[C@@H](CN(C)C)[C@@H]2CC1.O=C(O)/C=C/C(=O)O [Example 1, hydrate of dimethylaminomicheliolide fumarate] | ≤ 300 μm | 32.5 ° | 0.646 g/mL | 
CC1=C2CC[C@@](C)(O)[C@@H]2[C@H]2OC(=O)[C@@H](CN(C)C)[C@@H]2CC1.O=C(O)/C=C/C(=O)O [Example 3, hydrate of dimethylaminomicheliolide fumarate] | ≤ 300 μm | 32 ° | 0.65 g/mL | 
CC1=C2CC[C@@](C)(O)[C@@H]2[C@H]2OC(=O)[C@@H](CN(C)C)[C@@H]2CC1.O=C(O)/C=C/C(=O)O [Example 4, hydrate of dimethylaminomicheliolide fumarate] | ≤ 300 μm | 32.2 ° | 0.659 g/mL | 
CC1=C2CC[C@@](C)(O)[C@@H]2[C@H]2OC(=O)[C@@H](CN(C)C)[C@@H]2CC1.O=C(O)/C=C/C(=O)O [Example 7, hydrate of dimethylaminomicheliolide fumarate] | ≤ 300 μm | 32 ° | 0.65 g/mL | 
CC1=C2CC[C@@](C)(O)[C@@H]2[C@H]2OC(=O)[C@@H](CN(C)C)[C@@H]2CC1.O=C(O)/C=C/C(=O)O [Dimethylaminomicheliolide fumarate] |  |  |  | solubility ([4]; in cyclohexane, n-hexane, n-heptane, dichloromethane, isopropyl ether and toluene): almost insoluble; solubility ([4]; in water, methanol, ethanol, tetrahydrofuran, 1,4-dioxane, acetone, acetonitrile and isopropyl acetate): soluble
CC1=C2CC[C@@](C)(O)[C@@H]2[C@H]2OC(=O)[C@@H](CN(C)C)[C@@H]2CC1.O=C(O)/C=C/C(=O)O [Example 2, hydrate of dimethylaminomicheliolide fumarate] | ≤ 300 μm | 32 ° | 0.655 g/mL | 
CC1=C2CC[C@@](C)(O)[C@@H]2[C@H]2OC(=O)[C@@H](CN(C)C)[C@@H]2CC1.O=C(O)/C=C/C(=O)O [Example 9, hydrate of dimethylaminomicheliolide fumarate] | ≤ 300 μm | 32.3 ° | 0.645 g/mL | 
C=C1C(=O)O[C@H]2[C@H]1CCC(C)=C1CC[C@@](C)(O)[C@@H]12 [micheliolide] |  |  |  | solubility in water [5]: poor solubility in water
CC1=C2CC[C@@](C)(O)[C@@H]2[C@H]2OC(=O)[C@@H](CN(C)C)[C@@H]2CC1 [DMAMCL, dimethylaminomicheliolide] |  |  |  | solubility in water [5]: improved solubility in water to a certain degree relative to MCL; stability on long-term storage ([6]; background statement): unstable
CC1=C2CC[C@@](C)(O)[C@@H]2[C@H]2OC(=O)[C@@H](CN(C)C)[C@@H]2CC1.O=C(O)/C=C/C(=O)O [Example 8, hydrate of dimethylaminomicheliolide fumarate] | ≤ 300 μm | 32.1 ° | 0.654 g/mL | 
CC1=C2CC[C@@](C)(O)[C@@H]2[C@H]2OC(=O)[C@@H](CN(C)C)[C@@H]2CC1.O=C(O)/C=C/C(=O)O [hydrate of dimethylaminomicheliolide fumarate] | ≤ 300 μm | 32 ° | 0.65 g/mL | change in purity vs day 0 ([7]; day 7): 0.015%; change in purity vs day 0 ([7]; day 14): 0.027%; change in purity vs day 0 ([7]; day 30): 0.046%; change in the XRD pattern ([7]; days 7, 14 and 30 vs day 0): no significant change; angle of repose ([2]; listed as hydrate of dimethylaminomicheliolide fumarate in the crystalline form D): 32 °
CC1=C2CC[C@@](C)(O)[C@@H]2[C@H]2OC(=O)[C@@H](CN(C)C)[C@@H]2CC1.O=C(O)/C=C/C(=O)O [crystalline form A, dimethylaminomicheliolide fumarate] |  | 62 ° | 0.270 g/mL | primary particle size ([1]; form A from natural cooling recrystallization, method of CN103724307B): 35.8 μm; stability of the crystalline form ([6]; prone to transformation): poor stability
